Like-named read-outs stand apart in the source and are kept apart here. Values belong to the molecule of their own block, whether it stands above or below them.
Tests used:
[1] = molecular target: T1, P2X1 (Homo sapiens, UniProt P51575); test: Aequorin functional assay of P2X receptors in yeast; assay type: cell-based; conditions: upon ATP addition
T1 construct: expressed in transfected cells; host or cells: Saccharomyces cerevisiae BY4741 dCne1p, genome-integrated under the GAL1 promoter
T1 sequence (P51575 1-399): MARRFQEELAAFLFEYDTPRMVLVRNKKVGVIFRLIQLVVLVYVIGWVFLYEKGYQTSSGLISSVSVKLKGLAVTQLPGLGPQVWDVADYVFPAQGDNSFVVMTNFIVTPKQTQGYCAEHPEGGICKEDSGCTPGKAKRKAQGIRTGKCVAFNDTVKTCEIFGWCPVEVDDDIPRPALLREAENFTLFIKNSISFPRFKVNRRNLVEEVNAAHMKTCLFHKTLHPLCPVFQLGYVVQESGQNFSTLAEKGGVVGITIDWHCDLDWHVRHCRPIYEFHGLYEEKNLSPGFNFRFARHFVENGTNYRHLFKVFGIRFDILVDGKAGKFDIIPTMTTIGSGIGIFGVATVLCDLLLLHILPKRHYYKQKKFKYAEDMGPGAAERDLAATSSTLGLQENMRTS
Experimental: (§1) Ion channel activity in yeast was tested with the purinergic P2X ion channel family. Channel gating was assessed by an aequorin assay in which aequorin is co-expressed with the receptor and, upon addition of the prosthetic group coelenterazine and addition of calcium, blue light is released. The aequorin-based functional assay was performed in all seven P2X receptors (FIG. 8). P2X1-7 were integrated into the chromosome to mitigate copy number variation between clones and were induced with galactose with the pGal1 promoter. […] Among those receptors that didn't work, it was suspected that improvements in expression and trafficking can improve functionality. For example, by modulating trafficking domains within the P2X4 receptor, aggregation was reduced in vesicles (FIG. 9), and it is believed that this tactic can be employed in other receptors. […] This can be because P2X2 has the slowest desensitization rates of the family (and is often considered “non-desensitizing”) and has the highest unitary conductance (30 pS).
(§2) BY4741ΔCne1p cells were transformed with vectors containing P2X variants. Transformants were validated and made competent for a subsequent transformation with a vector containing aequorin under the expression of the constitutive PGK2 promoter. Overnight cells were induced with 2% […] for 20 hours. Following receptor expression, cells were collected by centrifugation and concentrated to 500 μL. The concentrated cells were then incubated with 5 μL of 1 mg/mL coelenterazine for 30 minutes at room temperature. Washed cells were then resuspended in softening buffer (1 M Sorbitol, 25 mM EDTA, 50 mM DTT), followed by washes in 1 M sorbitol and water. […] Using an F500, 25 μL of cells were monitored for luminescence for 5 seconds. Upon addition of ligand or buffer (100 μL), cells were monitored for luminescence for varying times. […] Luminescence was monitored before and after the addition of 100 μL of 10 μM ATP. Areas under the curve were calculated and plotted against a negative control to determine the IC50.

[2] = molecular target: T2, P2X4 (Homo sapiens, UniProt Q99571); test: as above; assay type: cell-based; conditions: upon ATP addition
T2 construct: expressed in transfected cells; host or cells: Saccharomyces cerevisiae BY4741 dCne1p, single-copy integration, GAL1 promoter
T2 sequence (Q99571 with tags, fused parts or gaps): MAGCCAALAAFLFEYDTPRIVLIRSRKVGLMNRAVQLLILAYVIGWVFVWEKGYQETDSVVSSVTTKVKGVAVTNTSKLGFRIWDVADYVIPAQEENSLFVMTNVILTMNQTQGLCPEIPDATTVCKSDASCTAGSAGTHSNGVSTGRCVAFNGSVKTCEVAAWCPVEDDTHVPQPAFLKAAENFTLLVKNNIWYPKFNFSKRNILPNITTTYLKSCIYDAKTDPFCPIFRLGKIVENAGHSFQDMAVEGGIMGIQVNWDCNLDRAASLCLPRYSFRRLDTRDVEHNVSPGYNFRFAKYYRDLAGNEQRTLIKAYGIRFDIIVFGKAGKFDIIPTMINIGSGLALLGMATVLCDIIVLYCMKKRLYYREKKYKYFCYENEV
Experimental: as §1, §2

[3] = molecular target: T3, P2X7 (Homo sapiens, UniProt Q99572); test: as above; assay type: cell-based; conditions: upon ATP addition
T3 construct: expressed in transfected cells; host or cells: Saccharomyces cerevisiae BY4741 dCne1p, genome-integrated under the GAL1 promoter
T3 sequence (Q99572 1-595): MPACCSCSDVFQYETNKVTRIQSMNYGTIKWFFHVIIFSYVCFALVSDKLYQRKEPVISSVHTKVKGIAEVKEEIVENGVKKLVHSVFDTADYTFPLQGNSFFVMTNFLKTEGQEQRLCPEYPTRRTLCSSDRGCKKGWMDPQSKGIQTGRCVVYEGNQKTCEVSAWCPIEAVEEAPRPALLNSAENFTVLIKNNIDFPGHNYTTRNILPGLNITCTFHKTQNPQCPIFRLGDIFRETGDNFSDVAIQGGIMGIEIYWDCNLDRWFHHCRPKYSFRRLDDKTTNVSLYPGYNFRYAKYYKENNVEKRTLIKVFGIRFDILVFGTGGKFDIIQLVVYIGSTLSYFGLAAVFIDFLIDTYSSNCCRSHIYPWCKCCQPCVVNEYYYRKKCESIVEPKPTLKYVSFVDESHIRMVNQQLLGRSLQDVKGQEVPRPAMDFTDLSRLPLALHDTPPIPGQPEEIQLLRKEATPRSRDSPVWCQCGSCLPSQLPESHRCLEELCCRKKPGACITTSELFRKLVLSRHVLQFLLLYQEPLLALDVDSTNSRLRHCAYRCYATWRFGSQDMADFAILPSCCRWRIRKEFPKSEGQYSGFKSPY
Experimental: as §1, §2

[4] = molecular target: T4, P2X2 (Homo sapiens, UniProt Q9UBL9); test: Plate-based aequorin luminescence assay of P2X2 expressed in yeast; assay type: cell-based; design: expressed in transfected cells; host or cells: Saccharomyces cerevisiae BY4741 dCne1p, genome-integrated under the GAL1 promoter, aequorin on a high-copy plasmid
T4 sequence (Q9UBL9 1-471): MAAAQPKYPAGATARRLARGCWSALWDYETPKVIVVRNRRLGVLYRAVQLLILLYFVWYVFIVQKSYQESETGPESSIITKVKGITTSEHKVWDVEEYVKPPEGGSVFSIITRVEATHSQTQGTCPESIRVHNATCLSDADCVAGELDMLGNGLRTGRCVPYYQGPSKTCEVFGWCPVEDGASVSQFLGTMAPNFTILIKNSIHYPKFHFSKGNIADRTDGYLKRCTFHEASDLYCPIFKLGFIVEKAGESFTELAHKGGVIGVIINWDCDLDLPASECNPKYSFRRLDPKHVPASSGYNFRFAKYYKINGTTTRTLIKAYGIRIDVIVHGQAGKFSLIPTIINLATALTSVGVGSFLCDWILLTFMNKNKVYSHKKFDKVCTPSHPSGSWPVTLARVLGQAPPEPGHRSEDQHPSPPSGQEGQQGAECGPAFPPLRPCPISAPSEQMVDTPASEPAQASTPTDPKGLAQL
Experimental: as §1
To determine whether or not this truncated channel gated in yeast, an aequorin-based functional assay was used. Here aequorin, a bioluminescent protein, emits a photon upon binding calcium. This is done with the aid of coelenterazine, which must be added exogenously to yeast. The reaction is not catalytic, and the off-rate of calcium is too slow to observe on the timescales utilized in our assays. To optimize conditions for expression of both the receptor and reporter, a combination of integration, low-copy, and high-copy vectors was used. At this point, it was only possible to produce a signal upon addition of ATP, the native ligand, when both the receptor and reporter were expressed on high-copy plasmids (FIG. 56).
BY4741ΔCne1p cells were transformed with vectors containing P2X variants. Transformants were validated and made competent for a subsequent transformation with a vector containing aequorin under the expression of the constitutive PGK2 promoter. Overnight cells were induced with 2% […] for 20 hours. Following receptor expression, cells were collected by centrifugation and concentrated to 500 μL. The concentrated cells were then incubated with 5 μL of 1 mg/mL coelenterazine for 30 minutes at room temperature. Washed cells were then resuspended in softening buffer (1 M Sorbitol, 25 mM EDTA, 50 mM DTT), followed by washes in 1 M sorbitol and water. Cells were then resuspended in 50 mM MES/Tris pH 6.5 and aliquoted into a 96-well plate. Using an F500, 25 μL of cells were monitored for luminescence for 5 seconds. Upon addition of ligand or buffer (100 μL), cells were monitored for luminescence for varying times. Cell lysis was performed with the addition of 100 μL Tween20. For inhibition, varying concentrations of suramin were incubated with cells. Luminescence was monitored before and after the addition of 100 μL of 10 μM ATP. Areas under the curve were calculated and plotted against a negative control to determine the IC50.

[5] = molecular target: T4, P2X2; conditions: Baqi et al., 2011; Lambrecht et al., 2002; read-out: range of reported IC50 values; cited from earlier work
[6] = molecular target: T5, human 5HT1A (Homo sapiens, UniProt P08908); test: GPCR-CPR proof of concept, emulsion PCR amplification in yeast; assay type: cell-based; conditions: cells treated with 250 μM serotonin vs negative control; single-copy integration at HO site
T5 construct: expressed in transfected cells; host or cells: Saccharomyces cerevisiae JG05-2.0 (2 micron plasmid, pTDH3) / JG05-1.0 (single-copy integration at HO)
T5 sequence (P08908 1-422): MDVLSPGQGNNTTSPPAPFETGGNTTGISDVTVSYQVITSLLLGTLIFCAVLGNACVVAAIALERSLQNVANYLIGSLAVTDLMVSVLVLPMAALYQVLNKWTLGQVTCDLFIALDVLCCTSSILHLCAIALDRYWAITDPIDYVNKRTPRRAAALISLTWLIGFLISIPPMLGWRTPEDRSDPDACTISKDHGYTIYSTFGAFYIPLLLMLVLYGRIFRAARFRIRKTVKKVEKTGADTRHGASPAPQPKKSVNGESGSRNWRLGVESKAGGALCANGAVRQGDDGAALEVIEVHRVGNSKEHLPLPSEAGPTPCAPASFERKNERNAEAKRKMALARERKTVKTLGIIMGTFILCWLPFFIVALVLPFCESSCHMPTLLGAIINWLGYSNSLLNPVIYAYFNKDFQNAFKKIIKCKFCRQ
From the text: Having shown functionality of the 5HT1A receptor, CPR strains (JG05-1.0) were constructed using this receptor. […] However, background was mitigated by increasing the pH of the CPR master mix to pH 8.8 and lowering the number of cycles from 35 to 20 during the emulsion PCR. […] Further optimization of expression parameters can greatly increase the signal:noise. For example, a much more pronounced difference can be seen when expressing the receptor from a high-copy plasmid. The experiments outlined here were also performed with cells growing with the ligand for 18 hours. By concentrating the cells and limiting the time of induction, a decrease in background signal can be seen.
Control cells were not induced. Cells (3 mL total) were collected after 18 hours of induction and spun in a tabletop centrifuge at 3,000×g for 5 minutes. The supernatant was discarded and the cell pellet was washed in water and then resuspended in 1 M sorbitol, 25 mM EDTA, 50 mM DTI′. Cells were collected again and washed in 1 M sorbitol. After another wash with water, cells were resuspended in 500 μL PCR mastermix (pH 8.0 or pH 8.8). The resuspended cells were placed into a 2 mL tube with a 1 mL rubber syringe plunger and 1200 μL of oil mix (876 Tegosoft DEC, 84 Gransurf W9, and 240 μL light mineral oil (Sigma-Aldrich)). […]

Structure (SMILES): Nc1ncnc2c1ncn2[C@@H]1O[C@H](COP(=O)(O)OP(=O)(O)OP(=O)(O)O)[C@@H](O)[C@H]1O [ATP]
ligand-dependent gating, calcium influx [1]: showed an ATP-dependent calcium influx | ligand-dependent gating, calcium influx [2]: showed an ATP-dependent calcium influx | ligand-dependent gating, calcium influx [3]: showed an ATP-dependent calcium influx | agonism / gating of P2X2 ([4]; aequorin luminescence): showed an ATP-dependent calcium influx | EC50 ([4]; dose-response, area under luminescence curve): 6.7 ± 1.5 µM

IC50 ([4]; cells equilibrated with suramin, then 10 μM ATP): 31.6 ± 1.4 µM
Structure (SMILES): Cc1ccc(C(=O)Nc2ccc(S(=O)(=O)O)c3cc(S(=O)(=O)O)cc(S(=O)(=O)O)c23)cc1NC(=O)c1cccc(NC(=O)Nc2cccc(C(=O)Nc3cc(C(=O)Nc4ccc(S(=O)(=O)O)c5cc(S(=O)(=O)O)cc(S(=O)(=O)O)c45)ccc3C)c2)c1 [suramin]
IC50 [5]: 2 to 48 µM

Structure (SMILES): NCCc1c[nH]c2ccc(O)cc12 [serotonin]
increase in signal of CPR amplification product [6]: 20 fold
